According to article PMC9130746, “In Vitro Activity of Peptide Antibiotics in Combination With Other Antimicrobials on Extensively Drug-Resistant Acinetobacter baumannii in the Planktonic and Biofilm Cell” (Frontiers in Pharmacology, 2022):
Values after ≈ are worked out from the molar mass of the structure shown. Where two headings read alike, the source gives them in different places.

Assays:
Assay type in all cases: cell-based, Acinetobacter baumannii
[1] = test system: extensively drug-resistant A. baumannii clinical isolates (planktonic cell); assay: microbe, parasite or virus in culture; conditions: for MIC: planktonic, broth microdilution, CAMHB, 37°C 16–20 h, OD600
Excerpt: (§1) Nine XDRAB strains were isolated from clinical specimens such as the septum, urine, or respiratory lavage fluid of patients from the respiratory intensive care unit, intensive care unit, the cardiothoracic surgery department, and the neurology department at the First Affiliated Hospital of Chengdu Medical College during the period from 2018 to 2020 (Chengdu, Sichuan, China). In addition, A. baumannii ATCC 19606, Staphylococcus aureus ATCC 29213, and Escherichia coli ATCC 25922 were used as quality control strains in antimicrobial susceptibility testing (AST) and obtained from the American Type Culture Collection (ATCC, Manassas, VA, United States).
The minimum inhibitory concentrations (MICs) were determined by the broth microdilution method for the antibacterial agents and peptide antibiotics for A. baumannii based on the guidelines provided by the Clinical and Laboratory Standards Institute (CLSI) ([Humphries et al., 2021]). Briefly, bacterial cells were inoculated in Luria–Bertani agar medium at 37°C for 16–20 h, and then resuspended in saline (0.9% sodium chloride) to adjust the bacterial content to reach the 0.5 McFarland turbidity standard, followed by a 20-fold dilution. Antimicrobial solutions were prepared according to the CLSI ([Humphries et al., 2021]). Finally, 180 μl CAMHB, 10 µl corresponding antimicrobials, and 10 µl bacterial resuspension were added into 96-well plate (NEST TC, 701001, www.cell-nest.com). The value of OD600 was measured after incubating at 37°C for 16–20 h.

[2] = test system: extensively drug-resistant A. baumannii clinical isolates (biofilm cell); conditions: for MBIC: 24 h biofilm in TSB, then MH broth with drug 16–20 h 37°C, OD600
Excerpt: as §1
The minimum biofilm inhibitory concentrations (MBICs) were detected using a previous study protocol ([Kart et al., 2021]) for the antibacterial agents and peptide antibiotics for A. baumannii in the biofilm cell. First, bacterial cells were inoculated in Luria–Bertani agar medium at 37°C for 16–20 h. Next, the bacterial monoclones were resuspended in saline (0.9% sodium chloride) to adjust the bacterial content to reach the 0.5 McFarland turbidity standard. Then, 190 µl TSB and 10 µl bacterial resuspension were mixed in a 96-well plate. After incubating at 37°C for 24 h, the medium was aspirated, and 200 µl PBS was added to wash three times. Finally, 190 μl MH broth medium and 10 µl corresponding antibiotics were added into 96-well plate (NEST TC, 701001, www.cell-nest.com). The optical density was measured at OD600 after incubating for 16–20 h at 37°C.

[3] = test system: extensively drug-resistant A. baumannii isolates (biofilm cell); assay: Checkerboard synergy study in the biofilm cell (FBIC); conditions: in combination with polymyxins
Procedure: The checkerboard method, the fractional inhibitory concentration index (FICI), and the fractional biofilm inhibitory concentration index (FBIC) evaluated the synergistic effects of five peptide antibiotics combined with one of the five antimicrobials in the planktonic and biofilm cells among the nine XDRAB isolates. The planktonic cells were investigated by adding 170 µl of MHB and 10 µl of bacterial suspension (1.5 × 10^8 CFU/ml) into the 96 well plates. It was followed by adding 10 µl of serially diluted peptide antibiotics along the x-axis and antimicrobials along the y-axis. The biofilm cells were studied by cultivating the bacteria to form the biofilm into a 96-well plate (NEST TC, 701001, www.cell-nest.com) and washed with 200 µl of PBS three times. The following steps were consistent with the planktonic study. The value of OD600 was measured after incubating at 37°C for 20 h. The FICI and FBIC were evaluated as follows: Synergy between the two drugs was defined as either a FICI or an FBIC of ≤0.5, >0.5–1 for additivity, >1–2 for indifference, and >2 for antagonism ([Kim et al., 2015]; [Peng et al., 2020]; [Lin et al., 2021]).

[4] = after XDRAB biofilm formation, nine isolates

Compound | MIC ([1]; isolate AB1) | MIC ([1]; isolate AB2) | MIC ([1]; isolate AB3) | MIC ([1]; isolate AB4) | MIC ([1]; isolate AB5) | MIC ([1]; isolate AB6) | MIC ([1]; isolate AB7) | MIC ([1]; isolate AB8) | MIC ([1]; isolate AB9) | MBIC ([2]; isolate AB1) | MBIC ([2]; isolate AB2) | MBIC ([2]; isolate AB3) | MBIC ([2]; isolate AB4) | MBIC ([2]; isolate AB5) | MBIC ([2]; isolate AB6) | MBIC ([2]; isolate AB7) | MBIC ([2]; isolate AB8) | MBIC ([2]; isolate AB9) | other results
CN(C)c1cc(NC(=O)CNC(C)(C)C)c(O)c2c1C[C@H]1C[C@H]3[C@H](N(C)C)C(O)=C(C(N)=O)C(=O)[C@@]3(O)C(O)=C1C2=O [Tigecycline, tigecycline] | – | – | – | – | – | – | – | – | – | – | – | – | – | – | – | – | – | – | MIC ([1]; Acinetobacter baumannii, isolate AB1, read-out: MIC): 1 µg/mL (≈ 1.71 µM); MIC ([1]; Acinetobacter baumannii, isolate AB2, read-out: MIC): 1 µg/mL (≈ 1.71 µM); MIC ([1]; Acinetobacter baumannii, isolate AB3, read-out: MIC): 1 µg/mL (≈ 1.71 µM); MIC ([1]; Acinetobacter baumannii, isolate AB4, read-out: MIC): 1 µg/mL (≈ 1.71 µM); MIC ([1]; Acinetobacter baumannii, isolate AB5, read-out: MIC): 1 µg/mL (≈ 1.71 µM); MIC ([1]; Acinetobacter baumannii, isolate AB6, read-out: MIC): 1 µg/mL (≈ 1.71 µM); MIC ([1]; Acinetobacter baumannii, isolate AB7, read-out: MIC): 1 µg/mL (≈ 1.71 µM); MIC ([1]; Acinetobacter baumannii, isolate AB8, read-out: MIC): 1 µg/mL (≈ 1.71 µM); MIC ([1]; Acinetobacter baumannii, isolate AB9, read-out: MIC): 0.5 µg/mL (≈ 0.854 µM); sensitivity rate ([1]; planktonic cell, nine isolates): 100%; intermediate rate [2, 4]: 67%; resistance rate [2, 4]: 22%; sensitivity rate [2, 4]: 11%
CN[C@H](CC(C)C)C(=O)N[C@H]1C(=O)N[C@@H](CC(N)=O)C(=O)N[C@H]2C(=O)N[C@H]3C(=O)N[C@H](C(=O)N[C@H](C(=O)O)c4cc(O)cc(O)c4-c4cc3ccc4O)[C@H](O)c3ccc(c(Cl)c3)Oc3cc2cc(c3O[C@@H]2O[C@H](CO)[C@@H](O)[C@H](O)[C@H]2O[C@H]2C[C@](C)(N)[C@H](O)[C@H](C)O2)Oc2ccc(cc2Cl)[C@H]1O [Vancomycin, vancomycin] | 64 µg/mL (≈ 44.2 µM) | 64 µg/mL (≈ 44.2 µM) | 128 µg/mL (≈ 88.3 µM) | 64 µg/mL (≈ 44.2 µM) | 128 µg/mL (≈ 88.3 µM) | 128 µg/mL (≈ 88.3 µM) | 128 µg/mL (≈ 88.3 µM) | 64 µg/mL (≈ 44.2 µM) | 128 µg/mL (≈ 88.3 µM) | 256 µg/mL | 128 µg/mL | 128 µg/mL | 128 µg/mL | 256 µg/mL | 256 µg/mL | 128 µg/mL | 128 µg/mL | 128 µg/mL | –
CC[C@H]1OC(=O)[C@H](C)[C@@H](O[C@H]2C[C@@](C)(OC)[C@@H](O)[C@H](C)O2)[C@H](C)[C@@H](O[C@@H]2O[C@H](C)C[C@H](N(C)C)[C@H]2O)[C@](C)(O)C[C@@H](C)CN(C)[C@H](C)[C@@H](O)[C@]1(C)O [azithromycin] | – | – | – | – | – | – | – | – | – | – | – | – | – | – | – | – | – | – | MBIC when combined with polymyxins [3]: 128 µg/mL
polymyxin E | 2 µg/mL | 1 µg/mL | 1 µg/mL | 2 µg/mL | 2 µg/mL | 1 µg/mL | 2 µg/mL | 2 µg/mL | 2 µg/mL | 16 µg/mL | 8 µg/mL | 4 µg/mL | 4 µg/mL | 8 µg/mL | 8 µg/mL | 8 µg/mL | 4 µg/mL | 8 µg/mL | –
teicoplanin | 64 µg/mL | 64 µg/mL | 32 µg/mL | 32 µg/mL | 64 µg/mL | 32 µg/mL | 128 µg/mL | 32 µg/mL | 64 µg/mL | – | 64 µg/mL | 64 µg/mL | – | – | 64 µg/mL | – | – | 64 µg/mL | –
